Values joined by “and” are separate entries in the source; they are usually repeats but may differ in a detail not shown here. Identical values can stand only once. Like-named read-outs stand apart in the source and are kept apart here.
Assays:
Solvent flash point = format: physicochemical
Solvent freezing point = format: physicochemical
[1] = Solvent viscosity at 20° C.; format: physicochemical; conditions: 20° C./1 Bar
[2] = according to MSDS; cited from earlier work
invertebrates = conditions: in vivo; cited from earlier work
[3] = according to MSDS; cited from earlier work; remark: listed apart in the source
algae = conditions: according to MSDS; cited from earlier work
[4] = Corrosion rate, autoclave tests; conditions: corrosion values of Tables 2 and 3
Description: The corrosion rates shown in Table 2 were obtained using autoclave tests at 80° C., a partial pressure of CO2 of 0.75 bar, a brine/hydrocarbon ratio of 99 to 1 and a shear stress of 60 Pa.

fish = conditions: according to MSDS; cited from earlier work
[5] = at 20° C.; background statement; cited from earlier work
[6] = listed as ethylene glycol n-butyl ether acetate

SMILES	Flash Point (Solvent flash point) [°C]	Freezing Point (Solvent freezing point) [°C]	Viscosity [1] [cP]	other results
CCCCOCCO [Butyl Cellosolve ™, ethylene glycol monobutyl ether]	67.0	−75.0	2.9	–
CCCCOCCOC(C)=O [Ethylene Glycol N-Butyl Ether Acetate, ethylene glycol n-butyl ether acetate]	78	−64.0	1.81	Log Pow bioaccumulation potential [2]: less than 3; Flash Point (Solvent flash point; [6]): about 78 °C; EC50 for invertebrates (invertebrates): > 10 µg/mL; Freezing Point (Solvent freezing point; [6]): about −64 °C; Viscosity [1, 6]: 1.79 cP and 1.81 cP; biodegradable in seawater [3]: 77-90%; EbC50 for algae (algae): > 10 mg/L; effect of solvent on performance of the corrosion inhibitors [4]: did not significantly affect the performance of the corrosion inhibitors; LC50 for fish (fish): > 10 µg/mL
CC(C)O [Isopropanol]	14	−89.0	2.1	–
CO [Methanol]	12	−97.8	0.59	–
OCCO [Monoethylene Glycol]	116	−13.0	17.3	Viscosity [5]: 17 cP
CC(O)CO (stereo not drawn) [Propylene Glycol]	99.0	−59.0	55.0	–
O [Water]	–	0	0.895	–
